One assay deals with human Factor XIa (Homo sapiens (Human), UniProt P03951). In words: Factor XIa Assay. It counts as biochemical. To be noted: purified human Factor XIa 40 pM, Z-Gly-Pro-Arg-AFC 100 μM, pH 7.4; read-out: FXIa Ki. An outline of the steps:
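Purified human FXIa (40 pM final) hydrolysing fluorogenic Z-Gly-Pro-Arg-AFC (100 μM) in 50 mM HEPES pH 7.4, 150 mM NaCl, 5 mM CaCl2, 0.1% PEG 8000, at room temperature or 37° C. Initial velocities measured after enzyme–inhibitor equilibration; Ki from Vo/Vi versus [I], assuming competitive inhibition.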

A further assay has as its target Human plasma kallikrein (Homo sapiens (Human), UniProt P03952). The assay can be described thus: Kallikrein Assay. It counts as biochemical. To be noted: purified Human plasma kallikrein 0.5 nM, Acetyl-K-P-R-AFC, pH 7.4; Ki from IC50 by Cheng Prusoff. The protocol:
The effectiveness of a compound of the present invention as an inhibitor of Kallikrein can be determined using a relevant purified serine protease, and an appropriate synthetic substrate. The rate of hydrolysis of the chromogenic or fluorogenic substrate by the relevant serine protease was measured both in the absence and presence of compounds of the present invention. Assays were conducted at room temperature or at 37° C. […] A decrease in the rate of fluorescence change in the presence of inhibitor is indicative of enzyme inhibition. Such methods are known to one skilled in the art. The results of this assay are expressed as the inhibitory constant, Ki.
Kallikrein determinations were made in 50 mM HEPES buffer at pH 7.4 containing 150 mM NaCl, 5 mM CaCl2, and 0.1% PEG 8000 (polyethylene glycol; Fisher Scientific). Determinations were made using purified Human plasma kallikrein at a final concentration of 0.5 nM (Enzyme Research Laboratories) and the synthetic substrate, Acetyl-K-P-R-AFC (Sigma #C6608) at a concentration of […].
Times required to achieve equilibration between enzyme and inhibitor were determined in control experiments. The reactions were performed under linear progress curve conditions and fluorescence increase measured at 405 Ex/510 Em nm. […] IC50 was determined by inflection point from a four parameter logistic curve fit. Ki was calculated using the Cheng Prusoff equation, Ki=IC50/(1+([S]/Km)).

Drawing on patent US10093683B2, “Factor XIa inhibitors” (Merck Sharp & Dohme Corp., priority 2014, dated 2018), this text covers Ki for 19 compounds.

As a reminder, the Ki is the dissociation constant of the complex between target and ligand, obtained from inhibition or displacement.

Sequence of Human plasma kallikrein (P03952 391-638): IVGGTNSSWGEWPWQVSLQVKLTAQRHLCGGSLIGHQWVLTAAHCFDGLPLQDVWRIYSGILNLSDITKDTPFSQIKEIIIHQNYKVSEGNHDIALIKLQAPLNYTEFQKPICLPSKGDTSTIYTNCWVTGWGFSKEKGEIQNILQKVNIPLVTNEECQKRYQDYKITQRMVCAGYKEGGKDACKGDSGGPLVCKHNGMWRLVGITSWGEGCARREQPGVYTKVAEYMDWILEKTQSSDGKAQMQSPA
Sequence of Human plasma kallikrein (P03952 20-390 partner): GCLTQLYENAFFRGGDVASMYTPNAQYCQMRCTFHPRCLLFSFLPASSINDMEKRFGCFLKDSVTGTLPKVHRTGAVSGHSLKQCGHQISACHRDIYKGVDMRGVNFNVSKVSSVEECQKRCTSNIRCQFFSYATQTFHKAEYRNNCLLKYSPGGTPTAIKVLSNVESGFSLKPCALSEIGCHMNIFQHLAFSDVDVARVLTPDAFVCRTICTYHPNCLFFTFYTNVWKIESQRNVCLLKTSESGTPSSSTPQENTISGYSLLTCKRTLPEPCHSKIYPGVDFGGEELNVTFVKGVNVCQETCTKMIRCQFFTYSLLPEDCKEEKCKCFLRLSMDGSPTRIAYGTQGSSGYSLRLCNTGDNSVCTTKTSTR
Sequence of human Factor XIa (P03951 388-625): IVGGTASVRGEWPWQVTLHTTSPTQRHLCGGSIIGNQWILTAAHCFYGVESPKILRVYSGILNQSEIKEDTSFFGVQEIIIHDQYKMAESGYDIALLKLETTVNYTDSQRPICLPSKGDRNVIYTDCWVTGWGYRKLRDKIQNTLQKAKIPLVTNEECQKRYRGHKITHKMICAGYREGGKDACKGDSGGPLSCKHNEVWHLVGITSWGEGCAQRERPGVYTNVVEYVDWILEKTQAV
Sequence of human Factor XIa (P03951 19-387 partner): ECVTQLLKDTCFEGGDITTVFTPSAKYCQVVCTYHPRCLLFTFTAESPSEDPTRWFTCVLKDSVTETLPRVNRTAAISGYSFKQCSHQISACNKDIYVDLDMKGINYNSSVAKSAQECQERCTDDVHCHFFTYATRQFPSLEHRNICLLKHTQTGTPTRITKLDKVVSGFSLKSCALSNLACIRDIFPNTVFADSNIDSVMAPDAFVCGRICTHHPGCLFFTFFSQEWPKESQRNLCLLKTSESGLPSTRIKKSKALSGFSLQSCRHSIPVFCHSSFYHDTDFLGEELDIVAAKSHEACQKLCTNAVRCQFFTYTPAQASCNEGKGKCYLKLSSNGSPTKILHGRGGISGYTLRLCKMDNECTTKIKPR

On to `COC(=O)Nc1ccc(C(=O)N[C@@H](Cc2ccccc2)C(=O)N2CCC[C@@]3(C2)OC(=O)Nc2ccc(F)cc23)cc1` [Example 8a, methyl (4-(((S)-1-((R)-6-fluoro-2-oxo-1,2-dihydrospiro[benzo[d][1,3]oxazine-4,3′-piperidin]-1′-yl)-1-oxo-3-phenylpropan-2-yl)carbamoyl)phenyl)carbamate], for which the Ki at human Factor XIa is 12.8 nM; on Human plasma kallikrein, 9.78 nM.
Regarding `COC(=O)Nc1ccc(C(=O)N[C@@H](Cc2ccccc2)C(=O)N2CCC[C@@]3(C2)OC(=O)Nc2ccc(OC)cc23)cc1` [Example 9, methyl (4-(((S)-1-((R)-6-methoxy-2-oxo-1,2-dihydrospiro[benzo[d][1,3]oxazine-4,3′-piperidin]-1′-yl)-1-oxo-3-phenylpropan-2-yl)carbamoyl)phenyl)carbamate], the Ki on human Factor XIa worked out at 2 nM; on Human plasma kallikrein it was 2.6 nM.
As for `COC(=O)Nc1ccc(C(=O)N[C@@H](Cc2ccccc2)C(=O)N2CCCC3(C2)OC(=O)Nc2ccc(Cl)c(F)c23)cc1` (stereo partly drawn) [Example 13, methyl (4-(((2S)-1-(6-chloro-5-fluoro-2-oxo-1,2-dihydrospiro[benzo[d][1,3]oxazine-4,3′-piperidin]-1′-yl)-1-oxo-3-phenylpropan-2-yl)carbamoyl)phenyl)carbamate], the Ki is 1.8 nM at human Factor XIa and 1.4 nM at Human plasma kallikrein.
Regarding `COC(=O)Nc1ccc(C(=O)N[C@@H](Cc2ccccc2)C(=O)N2CC[C@@]3(C2)OC(=O)Nc2ccc(C)cc23)cc1` [Example 14b, methyl (4-(((S)-1-((R)-6-methyl-2-oxo-1,2-dihydrospiro[benzo[d][1,3]oxazine-4,3′-pyrrolidin]-1′-yl)-1-oxo-3-phenylpropan-2-yl)carbamoyl)phenyl)carbamate], the Ki on human Factor XIa amounted to 9.5 nM; on Human plasma kallikrein it was 47.8 nM.
As to `COC(=O)Nc1ccc(C(=O)N[C@@H](Cc2ccccc2)C(=O)N2CCC[C@@]3(C2)OC(=O)Nc2ccc(C)cc23)cc1` [Example 15, methyl (4-(((S)-1-((R)-6-methyl-2-oxo-1,2-dihydrospiro[benzo[d][1,3]oxazine-4,3′-piperidin]-1′-yl)-1-oxo-3-phenylpropan-2-yl)carbamoyl)phenyl)carbamate], the Ki on human Factor XIa came to 5.5 nM; on Human plasma kallikrein, 2.8 nM.
In the case of `COC(=O)Nc1ccc(C(=O)N[C@@H](Cc2ccccc2)C(=O)N2CCC[C@@]3(C2)OC(=O)Nc2ccc(C)c(F)c23)cc1` [Example 16, methyl (4-(((S)-1-((R)-5-fluoro-6-methyl-2-oxo-1,2-dihydrospiro[benzo[d][1,3]oxazine-4,3′-piperidin]-1′-yl)-1-oxo-3-phenylpropan-2-yl)carbamoyl)phenyl)carbamate], the results for the Ki on human Factor XIa and on Human plasma kallikrein were 3.85 nM and 1.36 nM, respectively.
In the same order, the values of `COC(=O)Nc1ccc(C(=O)N[C@@H](Cc2ccc(F)cc2)C(=O)N2CC[C@@]3(C2)OC(=O)Nc2ccc(Cl)cc23)cc1` [Example 22, methyl (4-(((S)-1-((R)-6-chloro-2-oxo-1,2-dihydrospiro[benzo[d][1,3]oxazine-4,3′-pyrrolidin]-1′-yl)-3-(4-fluorophenyl)-1-oxopropan-2-yl)carbamoyl)phenyl)carbamate] are 5.3 nM and 21.9 nM.
For `COC(=O)Nc1ccc(C(=O)N[C@@H](Cc2ccc(F)c(F)c2)C(=O)N2CCC3(C2)OC(=O)Nc2ccc(Cl)cc23)cc1` (stereo partly drawn) [Example 27, methyl (4-(((2S)-1-(6-chloro-2-oxo-1,2-dihydrospiro[benzo[d][1,3]oxazine-4,3′-pyrrolidin]-1′-yl)-3-(3,4-difluorophenyl)-1-oxopropan-2-yl)carbamoyl)phenyl)carbamate], the results for the Ki on human Factor XIa and on Human plasma kallikrein were 14.3 nM and 32.6 nM, respectively.
With `COC(=O)Nc1ccc(C(=O)N[C@@H](Cc2cncn2C)C(=O)N2CCC3(C2)OC(=O)Nc2ccc(Cl)cc23)cc1` (stereo partly drawn) [Example 30, methyl (4-(((2S)-1-(6-chloro-2-oxo-1,2-dihydrospiro[benzo[d][1,3]oxazine-4,3′-pyrrolidin]-1′-yl)-3-(1-methyl-1H-imidazol-5-yl)-1-oxopropan-2-yl)carbamoyl)phenyl)carbamate], the Ki at human Factor XIa is 17.6 nM; at Human plasma kallikrein, 37 nM.
On to `COC(=O)Nc1ccc(C(=O)N[C@@H](Cn2cccn2)C(=O)N2CCC3(C2)OC(=O)Nc2ccc(Cl)cc23)cc1` (stereo partly drawn) [Example 31, methyl (4-(((2S)-1-(6-chloro-2-oxo-1,2-dihydrospiro[benzo[d][1,3]oxazine-4,3′-pyrrolidin]-1′-yl)-1-oxo-3-(1H-pyrazol-1-yl)propan-2-yl)carbamoyl)phenyl)carbamate], for which the Ki on human Factor XIa was 26 nM; at Human plasma kallikrein, 77.3 nM.
In the same order, the values of `COC(=O)Nc1ccc(C(=O)N[C@@H](Cc2ccsc2)C(=O)N2CCC3(C2)OC(=O)Nc2ccc(Cl)cc23)cc1` (stereo partly drawn) [Example 32, methyl (4-(((2S)-1-(6-chloro-2-oxo-1,2-dihydrospiro[benzo[d][1,3]oxazine-4,3′-pyrrolidin]-1′-yl)-1-oxo-3-(thiophen-3-yl)propan-2-yl)carbamoyl)phenyl)carbamate] are 16 nM and 42.2 nM.
In the case of `COC(=O)Nc1ccc(C(=O)N[C@@H](Cc2ccc(O)cc2)C(=O)N2CCC3(C2)OC(=O)Nc2ccc(Cl)cc23)cc1` (stereo partly drawn) [Example 35, methyl (4-(((2S)-1-(6-chloro-2-oxo-1,2-dihydrospiro[benzo[d][1,3]oxazine-4,3′-pyrrolidin]-1′-yl)-3-(4-hydroxyphenyl)-1-oxopropan-2-yl)carbamoyl)phenyl)carbamate], the Ki was determined as 3.28 nM at human Factor XIa and 24.6 nM on Human plasma kallikrein.
`COCC[C@H](NC(=O)c1ccc(NC(=O)OC)cc1)C(=O)N1CCC[C@@]2(C1)OC(=O)Nc1ccc(Cl)cc12` [Example 37, methyl (4-(((S)-1-((R)-6-chloro-2-oxo-1,2-dihydrospiro[benzo[d][1,3]oxazine-4,3′-piperidin]-1′-yl)-4-methoxy-1-oxobutan-2-yl)carbamoyl)phenyl)carbamate]: the Ki on human Factor XIa turned out to be 9.21 nM; on Human plasma kallikrein, 2.68 nM.
As to `COC(=O)Nc1ccc(C(=O)N[C@@H](CO)C(=O)N2CCC[C@@]3(C2)OC(=O)Nc2ccc(Cl)cc23)cc1` [Example 38, methyl (4-(((S)-1-((R)-6-chloro-2-oxo-1,2-dihydrospiro[benzo[d][1,3]oxazine-4,3′-piperidin]-1′-yl)-3-hydroxy-1-oxopropan-2-yl)carbamoyl)phenyl)carbamate], the Ki at human Factor XIa came to 49.9 nM; at Human plasma kallikrein it was 9.45 nM.
On to `COC(=O)Nc1ccc(C(=O)N[C@@H](Cc2ccc(C(=O)c3ccccc3)cc2)C(=O)N2CCC3(C2)OC(=O)Nc2ccc(Cl)cc23)cc1` (stereo partly drawn) [Example 39, methyl (4-(((2S)-3-(4-benzoylphenyl)-1-(6-chloro-2-oxo-1,2-dihydrospiro[benzo[d][1,3]oxazine-4,3′-pyrrolidin]-1′-yl)-1-oxopropan-2-yl)carbamoyl)phenyl)carbamate], for which the values for the Ki on human Factor XIa and on Human plasma kallikrein were 39.3 nM and 86.6 nM, respectively.
As for `COC(=O)Nc1ccc(C(=O)N[C@@H](Cc2cscn2)C(=O)N2CCC3(C2)OC(=O)Nc2ccc(Cl)cc23)cc1` (stereo partly drawn) [Example 40, methyl (4-(((2S)-1-(6-chloro-2-oxo-1,2-dihydrospiro[benzo[d][1,3]oxazine-4,3′-pyrrolidin]-1′-yl)-1-oxo-3-(thiazol-4-yl)propan-2-yl)carbamoyl)phenyl)carbamate], the Ki was determined as 52.4 nM at human Factor XIa and 116 nM at Human plasma kallikrein.
On to `COC(=O)Nc1ccc(C(=O)N[C@@H](Cc2sccc2F)C(=O)N2CCC3(C2)OC(=O)Nc2ccc(Cl)cc23)cc1` (stereo partly drawn) [Example 43, methyl (4-(((2S)-1-(6-chloro-2-oxo-1,2-dihydrospiro[benzo[d][1,3]oxazine-4,3′-pyrrolidin]-1′-yl)-3-(3-fluorothiophen-2-yl)-1-oxopropan-2-yl)carbamoyl)phenyl)carbamate], for which the Ki on human Factor XIa was 17.7 nM; at Human plasma kallikrein, 42.5 nM.
In the same order, the values of `COC(=O)Nc1ccc(C(=O)N[C@@H](Cc2ccc(OC3CCCC3)cc2)C(=O)N2CCC3(C2)OC(=O)Nc2ccc(Cl)cc23)cc1` (stereo partly drawn) [Example 44, methyl (4-(((2S)-1-(6-chloro-2-oxo-1,2-dihydrospiro[benzo[d][1,3]oxazine-4,3′-pyrrolidin]-1′-yl)-3-(4-(cyclopentyloxy)phenyl)-1-oxopropan-2-yl)carbamoyl)phenyl)carbamate] are 70 nM and < 1.3 nM.
As for `COC(=O)Nc1ccc(C(=O)N[C@@H](Cc2ccc(C#N)cc2)C(=O)N2CCC[C@@]3(C2)OC(=O)Nc2ccc(Cl)cc23)cc1` [Example 45, methyl (4-(((S)-1-((R)-6-chloro-2-oxo-1,2-dihydrospiro[benzo[d][1,3]oxazine-4,3′-piperidin]-1′-yl)-3-(4-cyanophenyl)-1-oxopropan-2-yl)carbamoyl)phenyl)carbamate], the Ki is 5.55 nM on human Factor XIa and < 1.3 nM on Human plasma kallikrein.
